One series addresses T1, human MIF (Homo sapiens, UniProt P14174).
T1 sequence (P14174 2-115 limits assumed): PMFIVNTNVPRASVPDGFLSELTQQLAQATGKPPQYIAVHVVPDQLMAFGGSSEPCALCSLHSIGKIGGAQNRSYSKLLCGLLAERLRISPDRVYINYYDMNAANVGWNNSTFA
Put plainly: Depletion of human MIF from cell culture supernatant (sandwich ELISA). It counts as cell-based. Details: host or cells: exogenous protein added to cell culture. Particulars: for depletion of MIF from cell culture supernatant / depletion of human MIF from cell culture supernatant: human MIF 100 nM; for depletion of MIF from cell culture supernatant: MIF-AF2 at 40 nM, 200 nM, and 1 μM, FIG. 129; for depletion of human MIF from cell culture supernatant: FIG. 128A. As to the method: The ability of bifunctional MIF-binding molecules to mediate the depletion of human MIF from cell culture was investigated. In these assays, human MIF was present at a concentration of 100 nM, and a sandwich ELISA assay was utilized to measure the concentration of human MIF remaining in the cell culture supernatant. The closely related bifunctional molecules MIF-GN3, MIF-PEG2-GN3, and MIF-PEG4-GN3 were used, as well as the structurally dissimilar molecule MIF-NVS-PEG3-GN3. […] Based on the ease of its synthesis and its efficacy in this experiment, MIF-GN3 was utilized for further studies. It was next investigated whether the MIF inhibitor 3w mediates MIF depletion from cell culture supernatant. […] When cells were treated with 3w, no depletion of exogenous MIF protein was observed after 24 hours (FIG. 128B).

In series [1] the test system is HepG2 cells. The series can be described thus: Degradation of α-DNP antibody endocytosed via DNP-AF3 in HepG2 cells (PAGE, 50 kDa/25 kDa band ratio) and effect of protease inhibitors. Type of series: cell-based, human. Conditions: for inhibition of α-DNP antibody degradation, triplicate: 12 hours, FIG. 117; for toxicity to cells: pepstatin 5 μM after 24 hours, AEBSF 100 μM, ALLN 100 μM by 24 hours; for inhibition of degradation of α-DNP antibody, repeat with selected conditions: 80 μM leupeptin, 10 and 100 μM ALLN, 15 μM pepstatin, FIG. 118, leupeptin not significant (p=0.0504). The text has this: First, reducing conditions were used to visualize antibody degradation via PAGE gel.

Series [2] concerns HepG2 cells. Put plainly: DNP-GN3-mediated endocytosis of fluorescently labeled α-DNP antibody by adherent HepG2 cells. Particulars: DNP-GN3-mediated uptake; FIG. 89. Type of series: cell-based, human. The procedure:
It was next explored whether DNP-GN3 mediates the endocytosis of fluorescently labeled α-DNP antibody.
To explore the cellular mechanism of antibody uptake, cells were treated with chemical inhibitors of several endocytic pathways (FIG. 89).

The test system of series [3] is HepG2 cells. Put plainly: MIF-GN3-mediated endocytosis of fluorescently labeled human MIF by HepG2 cells. Conditions: 100 nM MIF, 200 nM MIF-GN3; FIG. 132. The procedure:
Human MIF protein was fluorescently labeled with Alexa 488 NHS ester, then incubated with HepG2 cells in the presence of varying levels of MIF-GN3.
Next, inhibitors of various endocytic pathways were utilized to determine if MIF-GN3 mediates MIF endocytosis in a manner consistent with ASGPR (FIG. 132).

Setting [4] is: single replicate, FIG. 116, leupeptin 20 and 80, E64 50 and 10 μM, antipain 50 and 100 μM, aprotinin 400 or 800 nM, PMSF 100 or 500 μM, AEBSF 10 μM, ALLN 10 μM.

Square brackets hold non-standard residues; d marks the D form. Peptide text beside a SMILES is read from it. * marks the point of attachment. Sta = CC(C)C[C@H](N)[C@@H](O)CC(=O)O; Isovaleryl = CC(C)CC(=O)*; Nle = CCCC[C@H](N)C(=O)O

As for `O=C(CCOCC(COCCC(=O)NCCOCCOCCOCCOC[C@]12CO[C@H](O1)[C@H](NC(=O)C(F)(F)F)[C@@H](O)[C@H]2O)NC(=O)CCCOc1ccc2nc(-c3cn(-c4ccc(O)c(F)c4)nn3)ccc2c1)NCCOCCOCCOCCOC[C@]12CO[C@H](O1)[C@H](NC(=O)C(F)(F)F)[C@@H](O)[C@H]2O` [MIF-AF2], on human MIF (200 nM or 1 (μM), after 48 hours), the “depletion of MIF from the cell culture supernatant” value is about 100%. The “depletion of MIF from cell culture supernatant” value on human MIF is listed as “effective at depleting MIF”.

In the case of `O=C(CCOCC(COCCC(=O)NCCOCCOCCOCCOC[C@]12CO[C@H](O1)[C@H](NC(=O)C(F)(F)F)[C@@H](O)[C@H]2O)(COCCC(=O)NCCOCCOCCOCCOC[C@]12CO[C@H](O1)[C@H](NC(=O)C(F)(F)F)[C@@H](O)[C@H]2O)NC(=O)CCCOc1ccc2nc(-c3cn(-c4ccc(O)c(F)c4)nn3)ccc2c1)NCCOCCOCCOCCOC[C@]12CO[C@H](O1)[C@H](NC(=O)C(F)(F)F)[C@@H](O)[C@H]2O` [MIF-AF3], on human MIF (40 nM), the “molar equivalents of MIF protein depleted” value is reported as 2.08 molar equivalents. Besides, on human MIF (40 nM (4.0 pmol of molecule)), the “human MIF protein removed” value came to 8.32 pmol and the “removal of MIF present in the cell culture supernatant” value is recorded as 83.2%.

`Cl.NCCc1ccc(S(=O)(=O)F)cc1` [AEBSF, 4-(2-aminoethyl)benzeneulfonyl fluoride hydrochloride]: in the series with HepG2 cells [1], the “inhibition of α-DNP antibody degradation, triplicate” value (shortened to “inhibition … triplicate”) was “did not significantly inhibit” and the toxicity to cells result was “toxic to cells”. In addition, the “inhibition of α-DNP antibody degradation, initial screen” value (“inhibition … initial screen” for short) in the series with HepG2 cells [1] (setting [4]) is “not effective”.

Regarding `CC[C@@]1([C@@H]2O[C@@H]([C@H]3O[C@@](O)(CO)[C@H](C)C[C@@H]3C)C[C@@H]2C)CC[C@H]([C@]2(C)CC[C@]3(C[C@H](O)[C@@H](C)[C@@H]([C@@H](C)[C@@H](OC)[C@H](C)C(=O)O)O3)O2)O1` [monensin, Monensin], in the series on HepG2 cells [2], the “effect of endocytic pathway inhibitors on intracellular fluorescence” value is on record as “significantly decreased”. The “effect of endocytic pathway inhibitors on MIF-GN3-mediated MIF endocytosis” value in the series on HepG2 cells [3] is reported as “near background levels”.

As for `CCN(c1nc(N)c(C(=O)NC(=N)N)nc1Cl)C(C)C` [EIPA], in the series with HepG2 cells [2], the “effect of endocytic pathway inhibitors on intracellular fluorescence” value is given as “did not significantly decrease”. Further, in the series with HepG2 cells [3], the “effect of endocytic pathway inhibitors on MIF-GN3-mediated MIF endocytosis” value is “significantly inhibited uptake”.

On to `Cl.N` [ammonium chloride], for which the “effect of endocytic pathway inhibitors on MIF-GN3-mediated MIF endocytosis” value in the series with HepG2 cells [3] is given as “near background levels”.

As to `OC[C@H]1O[C@@](CO)(O[C@H]2O[C@H](CO)[C@@H](O)[C@H](O)[C@H]2O)[C@@H](O)[C@@H]1O` [sucrose], in the series with HepG2 cells [2], the “effect of endocytic pathway inhibitors on intracellular fluorescence” value is reported as “significantly decreased”. The “effect of endocytic pathway inhibitors on MIF-GN3-mediated MIF endocytosis” value in the series with HepG2 cells [3] was “near background levels”.

With `C=C1[C@@H](C)[C@H]2[C@H](Cc3ccccc3)NC(=O)[C@]23[C@H](OC(C)=O)/C=C/[C@@](C)(O)C(=O)[C@@H](C)C/C=C/[C@H]3[C@@H]1O` [cytochalasin D], the “effect of endocytic pathway inhibitors on intracellular fluorescence” value in the series with HepG2 cells [2] is listed as “did not significantly decrease”.

Consider `CC(=O)NC1C(OCCOCCOCCNC(=O)CCOCC(COCCC(=O)NCCOCCOCCOC2OC(CO)C(O)C(O)C2NC(C)=O)(COCCC(=O)NCCOCCOCCOC2OC(CO)C(O)C(O)C2NC(C)=O)NC(=O)CNC(=O)COCCOCCOCCn2cc(COCCOCCOc3ccc(N4Cc5ccc(O)cc5OC4=O)cc3)nn2)OC(CO)C(O)C1O` (stereo not drawn) [MIF-NVS-PEG3-GN3], for which the “depletion of human MIF from cell culture supernatant” value (“depletion of human MIF” below) on human MIF (24 hours) is reported as “effective at mediating the depletion of human MIF”.

For the compound `CC(=O)N[C@@H](CC(C)C)C(=O)N[C@@H](CC(C)C)C(=O)N[C@H](C=O)CCCNC(=N)N` [leupeptin, Leupeptin], in the series on HepG2 cells [1], the “inhibition of degradation of α-DNP antibody, repeat with selected conditions” value (from here on “inhibition … with selected conditions”) was “inhibited degradation” and the “inhibition … triplicate” value is on record as “inhibit α-DNP antibody degradation at all concentrations tested”. For the same compound, the “inhibition … initial screen” value in the series on HepG2 cells [1] (setting [4]) is reported as “effective”.

Consider `CO/C1=C\C(C)=C\[C@@H](C)[C@@H](O)[C@@H](C)C/C(C)=C/C=C/[C@H](OC)[C@@H]([C@@H](C)[C@@H](O)[C@H](C)[C@@]2(O)C[C@@H](O)[C@H](C)[C@@H](C(C)C)O2)OC1=O` [bafilomycin, Bafilomycin], for which the “effect of endocytic pathway inhibitors on intracellular fluorescence” value in the series on HepG2 cells [2] was “significantly decreased”. Moreover, the “effect of endocytic pathway inhibitors on MIF-GN3-mediated MIF endocytosis” value in the series on HepG2 cells [3] is reported as “near background levels”.

On to `CC(C)C[C@H](NC(=O)[C@H]1O[C@@H]1C(=O)O)C(=O)NCCCCN=C(N)N` [Compound E64, E64], for which, in the series with HepG2 cells [1], the “inhibition … with selected conditions” value is listed as “inhibited degradation” and the “inhibition … triplicate” value was “inhibit α-DNP antibody degradation at all concentrations tested”. Further, in the series on HepG2 cells [1] (setting [4]), the “inhibition … initial screen” value is reported as “effective”.

In the case of `O=C(CCCOc1ccc2nc(-c3cn(-c4ccc(O)c(F)c4)nn3)ccc2c1)NCCOCCC(=O)NCCOCCOCCOCCOC[C@]12CO[C@H](O1)[C@H](NC(=O)C(F)(F)F)[C@@H](O)[C@H]2O` [MIF-AF1], the “depletion of MIF from cell culture supernatant” value on human MIF is “not effective”.

As to `O=S(=O)(F)Cc1ccccc1` [PMSF, Phenylmethylsulfonyl fluoride], the “inhibition … triplicate” value in the series with HepG2 cells [1] is given as “did not significantly inhibit”. Further, the “inhibition … initial screen” value with HepG2 cells [1] (setting [4]) is listed as “not effective”.

For the compound Aprotinin, in the series with HepG2 cells [1], the “inhibition … triplicate” value is given as “did not significantly inhibit”. The “inhibition … initial screen” value in the series with HepG2 cells [1] (setting [4]) is recorded as “not effective”.

As to `CC(=O)NC1C(OCCOCCOCCNC(=O)CCOCC(COCCC(=O)NCCOCCOCCOC2OC(CO)C(O)C(O)C2NC(C)=O)(COCCC(=O)NCCOCCOCCOC2OC(CO)C(O)C(O)C2NC(C)=O)NC(=O)CNC(=O)COCCOCCNC(=O)CCCOc2ccc3nc(-c4cn(-c5ccc(O)c(F)c5)nn4)ccc3c2)OC(CO)C(O)C1O` (stereo not drawn) [MIF-PEG2-GN3], at human MIF (24 hours, FIG. 128B), the “depletion of exogenous MIF protein from supernatant” value is listed as “mediated MIF depletion across a range of concentrations”. On human MIF (24 hours), the “depletion of human MIF” value is given as “effective at mediating the depletion of human MIF”.

For `CC(C)CC(=O)N[C@H](C(=O)N[C@H](C(=O)N[C@@H](CC(C)C)[C@@H](O)CC(=O)N[C@@H](C)C(=O)N[C@@H](CC(C)C)[C@@H](O)CC(=O)O)C(C)C)C(C)C` [Pepstatin] (Isovaleryl-VV[Sta]A[Sta]-OH), in the series on HepG2 cells [1], the “inhibition … with selected conditions” value is given as “did not”; the “inhibition … triplicate” value is listed as “did not significantly inhibit”; the toxicity to cells entry is reported as “toxic to cells”. Further, the “inhibition … initial screen” value with HepG2 cells [1] (setting [4]) is recorded as “not effective”.

As for `CCCC[C@@H](C=O)NC(=O)[C@H](CC(C)C)NC(=O)[C@H](CC(C)C)NC(C)=O` [ALLN] (Ac-Leu-Leu-[Nle]-aldehyde), the “inhibition … initial screen” value with HepG2 cells [1] (100 μM, 12 hour time point) is on record as “strong inhibition”; with HepG2 cells [1] (setting [4]) it was “not active”. In addition, the “inhibition … triplicate” value in the series with HepG2 cells [1] is on record as “appeared effective”.

`CC(=O)NC1C(OCCOCCOCCNC(=O)CCOCC(COCCC(=O)NCCOCCOCCOC2OC(CO)C(O)C(O)C2NC(C)=O)(COCCC(=O)NCCOCCOCCOC2OC(CO)C(O)C(O)C2NC(C)=O)NC(=O)CNC(=O)COCCOCCOCCOCCNC(=O)CCCOc2ccc3nc(-c4cn(-c5ccc(O)c(F)c5)nn4)ccc3c2)OC(CO)C(O)C1O` (stereo not drawn) [MIF-PEG4-GN3]: the “depletion of human MIF” value on human MIF (24 hours) was “effective at mediating the depletion of human MIF”.

For `CC(C)C[C@H](NC(=O)[C@@H](O)[C@H](N)Cc1ccccc1)C(=O)O` [Bestatin], the “inhibition … triplicate” value with HepG2 cells [1] is given as “did not significantly inhibit”. The “inhibition … initial screen” value in the series on HepG2 cells [1] (setting [4]) was “not effective”.

Source of the values: patent US20230087994A1, “TARGETED BIFUNCTIONAL DEGRADERS” (YALE UNIVERSITY, priority 2019, published 2023).
